PubChem BioAssay AID588841 (The Scripps Research Institute Molecular Screening Center, 2011)
Activity calls are given as the source filed them.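 Rule for the calls: active = EC50 at or below 10 µM; inactive = the rest.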

Target: cAMP-dependent protein kinase type II-beta regulatory subunit (Homo sapiens) + cAMP-dependent protein kinase catalytic subunit beta (Mus musculus) (UniProt P31323+P68181)
Experiment: PKA-R2B holoenzyme activators, late-stage follow-up, biochemical, fluorescence polarization, powder samples (AID 588841)
Conditions: PKA-R2B holoenzyme dissociation, Cy5-IP20 fluorescence polarization

EC50	Structure (SMILES)
> 100 µM (inactive)	O=C(O)c1sccc1NC(=O)c1c(Cl)cccc1Cl
> 100 µM (inactive)	Cc1ccc(COc2ccsc2C(=O)O)cc1
> 100 µM (inactive)	Cc1csc(C(=O)O)c1NC(=O)c1ccc(F)cc1

Second part, the compound before the results:

Structure (SMILES)	EC50
COC(=O)c1sc2ncccc2c1OCc1ccccc1Cl	> 100 µM (inactive)
O=C(O)c1sc2ncccc2c1OCc1ccccc1	> 100 µM (inactive)
COC(=O)c1sc2ncccc2c1OCc1ccc(Cl)cc1Cl	> 100 µM (inactive)
CC(C)(C)c1ccc(COc2ccsc2C(=O)O)cc1	> 100 µM (inactive)
O=C(O)c1sccc1SCc1ccc(Cl)c(Cl)c1	> 100 µM (inactive)
O=C(O)c1sccc1SCc1ccc(Cl)cc1Cl	> 100 µM (inactive)
